Measured values: paper PMC4648258 (ACS infectious diseases, 2015)
Converted amounts (≈) assume the structure as drawn.

Key:
[1] = tested on: M. tuberculosis rINH (ATCC 35822); assay: microbe, parasite or virus in culture; format: cell-based, Mycobacterium tuberculosis
[2] = tested on: M. tuberculosis rSM (ATCC 35820); assay: microbe, parasite or virus in culture; format: cell-based, Mycobacterium tuberculosis
[3] = tested on: M. tuberculosis rKM (ATCC 35827); assay: microbe, parasite or virus in culture; format: cell-based, Mycobacterium tuberculosis
[4] = tested on: M. tuberculosis rRMP (ATCC 35838); assay: microbe, parasite or virus in culture; format: cell-based, Mycobacterium tuberculosis
[5] = tested on: M. tuberculosis rCS (cycloserine; ATCC35826); assay: microbe, parasite or virus in culture; format: cell-based; conditions: Mycobacterium tuberculosis
[6] = tested on: M. tuberculosis thyA overexpression mutant; format: cell-based
[7] = tested on: M. tuberculosis thyX overexpression mutant; format: cell-based
[8] = Mycobacterium tuberculosis, ATCC35822
[9] = Mycobacterium tuberculosis, ATCC35838
[10] = Mycobacterium tuberculosis, ATCC35820
[11] = Mycobacterium tuberculosis, ATCC35827

SMILES | MIC ([1]; MABA, rINH strain) [µg/mL] | MIC ([2]; MABA, rSM strain) [µg/mL] | MIC ([3]; MABA, rKM strain) [µg/mL] | MIC [1, 8] [µg/mL] | MIC [4, 9] [µg/mL] | MIC [2, 10] [µg/mL] | MIC [3, 11] [µg/mL] | MIC [5] [µg/mL] | MIC differential versus H37Rv wild-type [6] | MIC differential versus H37Rv wild-type [7] | MIC ([4]; MABA, rRMP strain) [µg/mL]
NC[C@H]1O[C@H](O[C@H]2[C@H](O)[C@@H](O[C@H]3O[C@H](CO)[C@@H](O)[C@H](N)[C@H]3O)[C@H](N)C[C@@H]2N)[C@H](O)[C@@H](O)[C@@H]1O [KM, kanamycin] | 0.95 (≈ 1.96 µM) | 0.95 (≈ 1.96 µM) | >2.00 |  |  |  |  |  |  |  | 
CO[C@H]1/C=C/O[C@@]2(C)Oc3c(C)c(O)c4c(O)c(c(/C=N/N5CCN(C)CC5)c(O)c4c3C2=O)NC(=O)/C(C)=C\C=C\[C@H](C)[C@H](O)[C@@H](C)[C@@H](O)[C@@H](C)[C@H](OC(C)=O)[C@@H]1C [RMP, rifampicin] |  |  |  | 0.01 (≈ 0.0122 µM) | > 2 | 0.03 (≈ 0.0365 µM) | < 0.01 | < 0.01 |  |  | 
O=[N+]([O-])c1cn2c(n1)OC[C@@H](OCc1ccc(OC(F)(F)F)cc1)C2 [PA824] |  |  |  | 0.03 (≈ 0.0835 µM) | 0.03 (≈ 0.0835 µM) | 0.11 (≈ 0.306 µM) | 0.19 (≈ 0.529 µM) |  |  |  | 
[H]/N=C(/N)N[C@H]1[C@H](O)[C@@H](O)[C@H](O[C@@H]2O[C@@H](C)[C@](O)(C=O)[C@H]2O[C@@H]2O[C@@H](CO)[C@H](O)[C@@H](O)[C@@H]2NC)[C@@H](N/C(N)=N\[H])[C@@H]1O [SM, streptomycin] |  |  |  | 0.46 (≈ 0.791 µM) |  | > 2 | 1.2 (≈ 2.06 µM) |  |  |  | 
CCCc1c2c([nH]c(=O)c1C)C(=O)c1[nH]c(=O)c(C)c(CCC)c1C2=O [Compound 3, diazaquinomycin A] | 0.13 (≈ 0.367 µM) | 0.17 (≈ 0.48 µM) | 0.06 (≈ 0.169 µM) |  |  |  |  |  | did not observe a significant differential in the MIC | did not observe a significant differential in the MIC | 0.27 (≈ 0.762 µM)
NNC(=O)c1ccncc1 [INH, isoniazid] |  |  |  | > 2 | 0.02 (≈ 0.146 µM) | 0.02 (≈ 0.146 µM) | 0.03 (≈ 0.219 µM) | 0.01 (≈ 0.0729 µM) |  |  | 
